Toxic doses and inconclusive results are not listed. Cut-off read from the data, not from the text of the source: active = T/C of 150% or more; inactive = T/C below 125%.
Tested on: L1210 leukemia ip in BDF1 mice, survival T/C
Experiment: NCI In Vivo Anticancer Drug Screen. Data for tumor model L1210 Leukemia (intraperitoneal) in B6D2F1 (BDF1) mice
Conditions: endpoint: mean survival time, higher = longer survival
How it was run: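 Read-out is survival time, reported as the treated-group measurement over the vehicle-control measurement.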

[1] = dose: 100.0 mg/kg/injection, schedule: Q01DX001 (ip), vehicle: saline
[2] = dose: 200.0 mg/kg/injection, schedule: Q01DX001 (ip), vehicle: saline
[3] = dose: 400.0 mg/kg/injection, schedule: Q01DX001 (ip), vehicle: saline
[4] = dose: 5.0 mg/kg/injection, schedule: Q01DX001 (ip), vehicle: saline
[5] = dose: 10.0 mg/kg/injection, schedule: Q01DX001 (ip), vehicle: saline
[6] = dose: 20.0 mg/kg/injection, schedule: Q01DX001 (ip), vehicle: saline
[7] = dose: 40.0 mg/kg/injection, schedule: Q01DX001 (ip), vehicle: saline
[8] = dose: 25.0 mg/kg/injection, schedule: Q01DX009 (ip), vehicle: saline with Tween-80
[9] = dose: 50.0 mg/kg/injection, schedule: Q01DX009 (ip), vehicle: saline with Tween-80
[10] = dose: 100.0 mg/kg/injection, schedule: Q01DX009 (ip), vehicle: Klucel (hydroxypropylcellulose) (HPC)
[11] = dose: 50.0 mg/kg/injection, schedule: Q01DX009 (ip), vehicle: saline
[12] = dose: 100.0 mg/kg/injection, schedule: Q01DX009 (ip), vehicle: saline

Measured: T/C

CCOc1ccc(Nc2ncnc3nc[nH]c23)cc1CN(CCCl)CCCl
inactive: dose: 1.2 mg/kg/injection, schedule: Q01DX Z (ip), vehicle: carboxymethylcellulose (CMC) 98 % of control | dose: 1.3 mg/kg/injection, schedule: Q01DX Z (ip), vehicle: carboxymethylcellulose (CMC) 114 % of control | dose: 1.56 mg/kg/injection, schedule: Q04DX003 (ip), vehicle: saline 113 % of control | dose: 1.9 mg/kg/injection, schedule: Q01DX Z (ip), vehicle: carboxymethylcellulose (CMC) 117 % of control | dose: 2.5 mg/kg/injection, schedule: Q01DX Z (ip), vehicle: carboxymethylcellulose (CMC) 103 % of control | dose: 3.3 mg/kg/injection, schedule: Q04DX003 (ip), vehicle: saline 111 % of control | dose: 4.2 mg/kg/injection, schedule: Q01DX Z (ip), vehicle: carboxymethylcellulose (CMC) 116 % of control | dose: 5.0 mg/kg/injection, schedule: Q01DX001 (ip), vehicle: carboxymethylcellulose (CMC) 104 % of control | dose: 5.0 mg/kg/injection, schedule: Q01DX Z (ip), vehicle: carboxymethylcellulose (CMC) 116 % of control | dose: 5.0 mg/kg/injection, schedule: Q04DX003 (ip), vehicle: saline 122 % of control | dose: 7.5 mg/kg/injection, schedule: Q04DX003 (ip), vehicle: saline 121 % of control | dose: 10.0 mg/kg/injection, schedule: Q01DX001 (ip), vehicle: carboxymethylcellulose (CMC) 102 % of control | dose: 10.0 mg/kg/injection, schedule: Q01DX Z (ip), vehicle: carboxymethylcellulose (CMC) 110 % of control | dose: 20.0 mg/kg/injection, schedule: Q01DX001 (ip), vehicle: carboxymethylcellulose (CMC) 109 % of control | dose: 40.0 mg/kg/injection, schedule: Q01DX001 (ip), vehicle: carboxymethylcellulose (CMC) 102 % of control

ClC1=C(Cl)C(Cl)(Cl)SS1
inactive: dose: 9.5 mg/kg/injection, schedule: Q01DX001 (ip), vehicle: other 100 % of control | dose: 10.0 mg/kg/injection, schedule: Q04DX003 (ip), vehicle: other 100 % of control | dose: 19.0 mg/kg/injection, schedule: Q01DX001 (ip), vehicle: other 103 % of control | dose: 20.0 mg/kg/injection, schedule: Q04DX003 (ip), vehicle: other 92 % of control | dose: 38.0 mg/kg/injection, schedule: Q01DX001 (ip), vehicle: other 91 % of control | dose: 40.0 mg/kg/injection, schedule: Q04DX003 (ip), vehicle: other 89 % of control | dose: 75.0 mg/kg/injection, schedule: Q01DX001 (ip), vehicle: other 93 % of control

CCN(CC)C1=C(Cl)C(=O)C(=O)c2cccnc21
inactive: dose: 18.8 mg/kg/injection, schedule: Q04DX003 (ip), vehicle: saline 97 % of control | dose: 37.5 mg/kg/injection, schedule: Q04DX003 (ip), vehicle: saline 103 % of control | dose: 75.0 mg/kg/injection, schedule: Q01DX001 (ip), vehicle: saline 97 % of control

S=C(c1ccccc1Cl)N1CCOCC1
inactive: [1] 104 % of control | [2] 102 % of control | [3] 98 % of control

CCC1(O)CC(OC2CC(N(C)C)C(OC3CC(O)C(OC4CC(O)C(O)C(C)O4)C(C)O3)C(C)O2)c2c(cc3c(c2O)C(=O)c2c(O)ccc(O)c2C3=O)C1C(=O)OC (stereo not given)
inactive: dose: 1.6 mg/kg/injection, schedule: Q01DX001 (ip), vehicle: saline 98 % of control | dose: 3.2 mg/kg/injection, schedule: Q01DX001 (ip), vehicle: saline 117 % of control | dose: 6.4 mg/kg/injection, schedule: Q01DX001 (ip), vehicle: saline 108 % of control | dose: 12.8 mg/kg/injection, schedule: Q01DX001 (ip), vehicle: saline 124 % of control

CCC1([N+](=O)[O-])COP(N)(=O)OC1 (stereo not given)
inactive: [4] 105 % of control | [5] 107 % of control | [6] 124 % of control | [7] 100 % of control | dose: 80.0 mg/kg/injection, schedule: Q01DX001 (ip), vehicle: saline 96 % of control

O=C(Cl)c1ccccc1Sc1ccccc1
inactive: [8] 106 % of control | [9] 97 % of control | dose: 100.0 mg/kg/injection, schedule: Q01DX009 (ip), vehicle: saline with Tween-80 92 % of control

CC(=O)N(C)c1cccc(C(=O)O)c1
inactive: dose: 100.0 mg/kg/injection, schedule: Q04DX003 (ip), vehicle: saline with Tween-80 98 % of control | dose: 200.0 mg/kg/injection, schedule: Q04DX003 (ip), vehicle: saline with Tween-80 94 % of control | dose: 400.0 mg/kg/injection, schedule: Q04DX003 (ip), vehicle: saline with Tween-80 98 % of control

O=C(O)CCC(Nc1sc([N+](=O)[O-])cc1[N+](=O)[O-])C(=O)O (stereo not given)
inactive: dose: 100.0 mg/kg/injection, schedule: Q04DX002 (ip), vehicle: saline with Tween-80 95 % of control | dose: 200.0 mg/kg/injection, schedule: Q04DX002 (ip), vehicle: saline with Tween-80 106 % of control | dose: 400.0 mg/kg/injection, schedule: Q04DX002 (ip), vehicle: saline with Tween-80 92 % of control

CC(=O)N(c1ccccc1)c1ccccc1
inactive: [10] 95 % of control | dose: 100.0 mg/kg/injection, schedule: Q04DX002 (ip), vehicle: Klucel (hydroxypropylcellulose) (HPC) 91 % of control | dose: 200.0 mg/kg/injection, schedule: Q01DX009 (ip), vehicle: Klucel (hydroxypropylcellulose) (HPC) 95 % of control | dose: 200.0 mg/kg/injection, schedule: Q04DX002 (ip), vehicle: Klucel (hydroxypropylcellulose) (HPC) 98 % of control | dose: 400.0 mg/kg/injection, schedule: Q01DX009 (ip), vehicle: Klucel (hydroxypropylcellulose) (HPC) 95 % of control | dose: 400.0 mg/kg/injection, schedule: Q04DX002 (ip), vehicle: Klucel (hydroxypropylcellulose) (HPC) 112 % of control

NC(N)=Nc1ccc(C(=O)Nc2ccc([N+](=O)[O-])cc2)cc1
inactive: [11] 101 % of control | [12] 94 % of control | dose: 100.0 mg/kg/injection, schedule: Q04DX003 (ip), vehicle: saline 95 % of control | dose: 200.0 mg/kg/injection, schedule: Q01DX009 (ip), vehicle: saline 90 % of control | dose: 200.0 mg/kg/injection, schedule: Q04DX003 (ip), vehicle: saline 101 % of control | dose: 400.0 mg/kg/injection, schedule: Q04DX003 (ip), vehicle: saline 97 % of control

CCOC(=O)c1cc(Br)c(O)c(Br)c1
inactive: dose: 50.0 mg/kg/injection, schedule: Q01DX009 (ip), vehicle: Klucel (hydroxypropylcellulose) (HPC) 95 % of control | [10] 91 % of control

NC(=O)c1cccs1
inactive: [4] 98 % of control | [5] 98 % of control | [6] 98 % of control | [7] 102 % of control

CCOP(=[Se])(OCC)OCC
inactive: dose: 12.5 mg/kg/injection, schedule: Q01DX009 (ip), vehicle: saline with Tween-80 91 % of control | [8] 107 % of control | [9] 88 % of control

CC1(C)OC2C(CO)OC(n3nnc4c(SCc5ccccc5)nc(N)nc43)C2O1 (stereo not given)
inactive: dose: 100.0 mg/kg/injection, schedule: Q01DX001 (ip), vehicle: Klucel (hydroxypropylcellulose) (HPC) 98 % of control | dose: 200.0 mg/kg/injection, schedule: Q01DX001 (ip), vehicle: Klucel (hydroxypropylcellulose) (HPC) 92 % of control | dose: 400.0 mg/kg/injection, schedule: Q01DX001 (ip), vehicle: Klucel (hydroxypropylcellulose) (HPC) 101 % of control

c1ccc(C2SC(c3ccccc3)SC(c3ccccc3)S2)cc1 (stereo not given)
inactive: [1] 90 % of control | [2] 88 % of control | [3] 92 % of control

O=C(OCCN1CCCCC1)C(c1ccccc1)C1(O)CCCC1 (stereo not given)
inactive: [11] 106 % of control | [12] 116 % of control

Reference: PubChem BioAssay AID248 (DTP/NCI, 2004)
